Test results as given in patent US8153821B2, “Compounds” (priority 2008, dated 2012).

Assays:
[1] = Dynamic vapor sorption (DVS); format: physicochemical; settings: 25° C.
Description: Sorption isotherms were determined using a SMS DVS Intrinsic moisture sorption analyzer controlled by SMS Analysis suite software. The sample temperature was maintained at 25° C. by the instrument controls. The humidity was controlled by mixing streams of dry and wet nitrogen, with a total flow rate of 200 mL/min. The relative humidity was measured by a calibrated Rotronic probe (dynamic range of 1.0-100% RH), located near the sample. The weight change, (mass relaxation) of the sample as a function of % RH was constantly monitored by the microbalance (accuracy ±0.005 mg).
Typically a 5-20 mg sample was placed on the tared mesh stainless steel basket under ambient conditions. The sample was loaded and unloaded at 40% RH and 25° C. (typical ambient conditions). A moisture sorption isotherm was performed as outlined below (2 scans giving 1 complete cycle). The standard isotherm was performed at 25° C. at 10% RH intervals over a 0-90% RH range.

| SMILES | DVS water uptake [1] | melting point |
| --- | --- | --- |
| C(=C\[C@H]1CCNC1)/c1cncc(OC2CCOCC2)c1.O=C(O)C[C@H](O)C(=O)O [(R)-3-((E)-2-(pyrrolidin-3-yl)vinyl)-5-(tetrahydropyran-4-yloxy)pyridine mono-L-malate] | minimum water uptake up to 80% R.H. | – |
| C(=C\[C@H]1CCNC1)/c1cncc(OC2CCOCC2)c1.O=C(O)C(=O)O | – | 180 to 181 °C |
